Laboratory results reported in doi:10.1101/2024.09.05.611349v1 (biorxiv, 2024).
Converted amounts (≈) assume the structure as drawn.

Columns and labels:
S. aureus ATCC 29213 = test: microbe, parasite or virus in culture; details: Staphylococcus aureus, ATCC29213, read-out: MIC (µg/mL)
in vitro [1] = details: Mouse liver microsomes
[2] = tested on: Staphylococcus epidermidis MSSE 15-61; test: microbe, parasite or virus in culture; parameters: species or system gram-positive clinical isolates; details: Staphylococcus epidermidis, MSSE1561, read-out: MIC(μg/ml) / 1b
[3] = tested on: Staphylococcus epidermidis MSSE 15-59; test: microbe, parasite or virus in culture; parameters: species or system gram-positive clinical isolates; details: Staphylococcus epidermidis, MSSE1559, read-out: MIC(μg/ml) / 1b
[4] = tested on: Staphylococcus epidermidis MSSE 15-64; test: microbe, parasite or virus in culture; parameters: species or system gram-positive clinical isolates; details: Staphylococcus epidermidis, MSSE1564, read-out: MIC(μg/ml) / 1b
[5] = tested on: Staphylococcus epidermidis MSSE 15-2; test: microbe, parasite or virus in culture; parameters: species or system gram-positive clinical isolates; details: Staphylococcus epidermidis, MSSE152, read-out: MIC(μg/ml) / 1b
[6] = tested on: Staphylococcus epidermidis MSSE 15-4; test: microbe, parasite or virus in culture; parameters: species or system gram-positive clinical isolates; details: Staphylococcus epidermidis, MSSE154, read-out: MIC(μg/ml) / 1b
[7] = tested on: Staphylococcus epidermidis MSSE 15-1; test: microbe, parasite or virus in culture; parameters: species or system gram-positive clinical isolates; details: Staphylococcus epidermidis, MSSE151, read-out: MIC(μg/ml) / 1b
in vitro [8] = details: Mouse plasma

CCCCCOc1ccc(C(=O)NNC(=S)NC(C)=O)cc1 [1b, N-(2-(4-(n-pentoxy)benzoyl)hydrazine-1-carbonothioyl)acetamide]
MIC (S. aureus ATCC 29213): 0.78 µg/mL (≈ 2.41 µM)
Mouse liver microsomes T1/2 (in vitro [1]): 0.472 h
MIC [2]: 1 µg/mL (≈ 3.09 µM)
MIC [3]: 1 µg/mL (≈ 3.09 µM)
MIC [4]: 8 µg/mL (≈ 24.7 µM)
MIC [5]: 1 µg/mL (≈ 3.09 µM)
MIC [6]: 1 µg/mL (≈ 3.09 µM)
MIC [7]: 1 µg/mL (≈ 3.09 µM)
Mouse plasma T1/2 (in vitro [8]): >2 h
